The text below walks through data of patent US20150336948A1, “Isotopically Labeled Biaryl Urea Compounds” (Merck Sharp & Dohme Corp., priority 2012, published 2015).

Where two headings read alike, the source gives them in different places.

Test [1] deals with T1, In Vitro Assembled Tau filaments (full length tau 4R2N, T40 isoform) (Homo sapiens, UniProt P10636).
T1 construct: full length tau monomer (4R2N, T40 isoform)
The test is described as follows: Displacement binding assay with in vitro assembled tau filaments. Particulars: 0.4 uM tau filaments. The procedure:
In Vitro assembled tau filaments were prepared similarly to Barghorn et al, Methods Mol Biol. 2005, 299, 35-51.
Briefly, Twenty micromolar (uM) of full length tau monomer (4R2N, T40 isoform), was incubated at 37 degrees shaking for 14 days with 50 uM heparin, 2 mM DTT, and 0.04% sodium azide in 100 mM Sodium Acetate (NaOAC) buffer pH7.0. All concentrations listed are final concentrations. Samples of the mixture were taken at 0, 10, and 14 days, and filament formation was examined using Thioflavin T binding compared to a control sample of filaments.
For the displacement binding assay, compound dilutions (1000×) were added into the 96-well plate (150 nL per well). 100% (1 uM self-block (unlabeled Compound—Example 1 or Example 4 dependent on the ^3H-labeled input compound—Example 6 or 7, respectively)) and 0% (DMSO) controls were included in each assay plate. In Vitro Assembled Tau filaments diluted in assay buffer (PBS+0.1% BSA) were added at a final concentration of 0.4 uM per well. Subsequently, either ^3H compound of Example 7 or ^3H compound of Example 6 was added to each well at a final concentration of 8 nM. Incubation was carried out at room temperature (25° C.) for 90 minutes, and then the assay samples were filtered onto GF/B filter plates that had been blocked at least 1 hour with 50 uL 0.2% PEI using a PerkinElmer Filtermate 96-well plate harvester, washing 6 times with ice cold buffer (5 mM Tris, pH 7.4). Plates were dried in a vacuum oven at 37° C. for 1 hour, then plates were sealed on the back, and 50 ul of Microscint-20 was added to each well. The tops of the plates were sealed, and then plates were read in a PerkinElmer TopCount. Data analysis was performed using internally developed software (Assay Data Analyzer).

For a further test, the system named is amyloid plaques. As to the kind of experiment: In vitro autoradiography, human AD brain cortex slice (amyloid plaques, 6E10 stain on adjacent slice). In kind it is binding. Particulars: adjacent slice 6E10 positive. The procedure:
(§1) To assess presence of amyloid plaques and NFTs in the tested human brain samples, the adjacent human AD brain slices were used for autoradiography (ARG) and immunohistochemistry (IHC) studies. ARG was done using isotopically labeled compounds which bind selectively to amyloid plaques or NFTs. IHC was performed with antibodies for amyloid-beta (Aβ) (6E10 (Covance)) and phosphorylated tau (p-tau) (PHF6 (Covance)). Tissue homogenate binding was performed using human AD brain homogenates of cerebral cortex. Human brains from donor without neurological disorder were used as control in the same study. […]
(§2) The frozen human brain samples of Alzheimer's disease (AD) and non-AD were purchased from Analytic Biological Services Inc. Frozen brain slices (20 μm thickness) were prepared using a cryostat (Leica CM3050) and kept in sequential order. […] Total binding of radioligand in a brain slices was defined in the absence of competitor, and non-specific binding (NSB) was determined in the presence of competitor (1.0 μM unlabeled self block). […] After one week exposure, the plates were scanned in Fuji BAS 5000 Scanner, and the scanned images were analyzed using MCID 7.0 software. [^3H]-microscales (Amersham Biosciences, GE), were used for quantification of radioligand binding density. FIGS. 3 and 4 have ARG images detected through this method.

The next test has as its system NFTs. As to the kind of experiment: In vitro autoradiography, human AD brain slice, hippocampus (NFTs, PHF6 stain on adjacent slice). In kind it is binding. The procedure:
as §1, §2

Setting [2] is: radioligand [3H] Example 7 at 8 nM, read-out: IC50, displacement of [3H] compound of Example 7 from in vitro assembled tau filaments.

T1 sequence (P10636 1-441 isoform P10636-8): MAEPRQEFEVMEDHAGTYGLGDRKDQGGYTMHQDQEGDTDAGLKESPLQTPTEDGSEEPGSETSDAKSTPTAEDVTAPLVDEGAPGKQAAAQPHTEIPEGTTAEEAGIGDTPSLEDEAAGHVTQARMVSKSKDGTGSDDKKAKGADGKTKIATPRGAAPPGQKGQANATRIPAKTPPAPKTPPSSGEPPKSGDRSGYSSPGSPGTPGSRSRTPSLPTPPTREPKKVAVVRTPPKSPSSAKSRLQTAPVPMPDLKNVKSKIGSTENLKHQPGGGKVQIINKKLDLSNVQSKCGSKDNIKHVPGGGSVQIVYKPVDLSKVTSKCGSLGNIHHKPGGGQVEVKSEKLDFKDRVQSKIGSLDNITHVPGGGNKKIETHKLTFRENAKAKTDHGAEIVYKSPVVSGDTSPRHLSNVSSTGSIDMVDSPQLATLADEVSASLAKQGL

For orientation: IC50 means the concentration at which inhibition is half-maximal. Turning to `COc1ccccc1NC(=O)Nc1ccc(-c2cn(C)c3cnccc23)cc1` [Example 1, 1-(2-methoxyphenyl)-3-(4-(1-methyl-1H-pyrrolo[2,3-c]pyridin-3-yl)phenyl)urea], the IC50 in test [1] (radioligand [3H] Example 6 at 8 nM, self-block, read-out: apparent IC50, inhibition of [3H] compound of Example 6 binding to in vitro assembled filaments) is 3 nM; in test [1] (setting [2]) it was 13.6 nM.
`COc1ccccc1NC(=O)Nc1ccc(-c2cnn3c2CCC3)cc1` [Example 2, 1-(4-(5,6-dihydro-4H-pyrrolo[1,2-b]pyrazol-3-yl)phenyl)-3-(2-methoxyphenyl)urea]: the IC50 in test [1] (setting [2]) is 25.1 nM.
Consider `COc1ccccc1NC(=O)Nc1ccc(-c2cnn(C)c2)cc1` [Example 3, 1-(2-methoxyphenyl)-3-(4-(1-methyl-1H-pyrazol-4-yl)phenyl)urea], for which the IC50 in test [1] (setting [2]) worked out at 33.6 nM.
Still for that read-out and setting: the value for `COc1ccccc1NC(=O)Nc1ccc(-c2cn(C)c3cnccc23)nc1` [Example 4, 1-(2-methoxyphenyl)-3-(6-(1-methyl-1H-pyrrolo[2,3-c]pyridin-3-yl)pyridin-3-yl)urea] was 20.2 nM; that for `Cn1cc(-c2ccc(NC(=O)Nc3ccccc3O)cn2)c2ccncc21` [Example 5, 1-(2-hydroxyphenyl)-3-(6-(1-methyl-1H-pyrrolo[2,3-c]pyridin-3-yl)pyridin-3-yl)urea] was 92 nM.
For `[3H]c1cc(-c2cn(C)c3cnccc23)cc([3H])c1NC(=O)Nc1c([3H])cccc1OC` [Example 6, [^3H]-(2-methoxyphenyl)-3-(4-(1-methyl-1H-pyrrolo[2,3-c]pyridin-3-yl)phenyl)urea], the “binding to amyloid plaques in cortex region (autoradiography)” value in the test on amyloid plaques is “lack of”. Also, in the test on NFTs (5 nM radioligand, human AD brain slice, adjacent slice IHC), the “autoradiographic binding pattern compared with PHF6 stain of NFTs in hippocampus” value was “consistent with the autoradiographic binding pattern”. Further, in the test with NFTs (human AD brain slices, FIGS. 3 and 4), the “specificity for Tau over Aβ (ARG evidence)” value is reported as “measurable specificity”.
